Test [1] deals with Spared tibial nerve injury (SNI) mice. Description: Spared nerve injury (SNI) model, paw withdrawal thresholds. It is filed as in vivo, mouse. The conditions noted are these: administration to the plantar skin. The source says: (§1) Mice were allowed to habituate to the testing apparatus (acrylic chambers 10×10 cm in size, suspended above a wired mesh grid) one hour prior to behavioral testing. Only once the subject was at rest and not moving, calibrated von-Frey hair monofilaments (Aesthesio® set of 20 monofilaments, Ugo Basil) were applied to the plantar surface of the hind paw in order to deliver target forces from 0.008 grams to 4 grams increasing in an approximately logarithmic scale. A single stimulus indicated by a slight bending of the filament lasted for two seconds unless the mouse withdrew its paw. In order to measure mechanosensitivity the up-and-down method described by Chaplan^13 was adapted as follows: Testing began with a filament delivering a target force of 0.4 g, but filaments were applied three times. A positive response was noted if the subject withdrew the paw to all three filament applications, so that the successively smaller filament was presented next. […] Paw withdrawal thresholds were calculated as median of 23 to 30 determined turning points of the particular force stimuli applied to the subject.

For test [2], the system named is RA-currents in mechanoreceptor sensory neurons. The test can be described thus: Cell soma indentation, RA-mechanosensitive currents in sensory neurons. It is filed as cell-based, mouse. The protocol: Whole-cell, patch-clamp recordings were conducted as previously described 5-7, using patch pipettes with a tip resistance of 3-6 MΩ, filled with a solution of: 110 mM KCl, 10 mM NaCl, 1 mM MgCl2, 1 mM EGTA and 10 mM HEPES, adjusted to pH 7.3 with KOH. (For experiments on DRG neurons 10 mM QX-314 was added to the pipette to block voltage-gated sodium channels 8 Extracellular solutions contained 140 mM NaCl, 4 mM KCl, 2 mM CaCl2, 1 mM MgCl2, 4 mM glucose, 10 mM HEPES, adjusted to pH 7.4 with NaOH. A Zeiss 200 inverted microscope and an EPC-10 amplifier in combination with Patchmaster software was used, data was analyzed using Fitmaster software (HEKA Electronik GmbH, Germany). Pipette and membrane capacitance were compensated using the auto function of Patchmaster, series resistance was compensated by at least 60% to minimize voltage errors. Mechanical stimuli were applied using a polished glass probe driven by the MM3A micromanipulator (Kleindiek Nanotechnik, Germany). Mechanical stimuli were applied by either; indenting the cell soma or by culturing cells on elastomeric pillar arrays and applying the stimulus to the cell-substrate interface by deflecting an individual pilus.
We evaluated the effects of OB-1 and OB-2 on mechanosensitive currents in acutely cultured mouse sensory neurons. […]

For test [3], the system named is mice with chronic constriction injury. Description: Chronic constriction injury (CCI) model, paw withdrawal thresholds to von Frey filaments. Type of test: in vivo, mouse.
From the text: In deeply anaesthetized mice using isoflurane delivered in 100% 02 (Univentor 410 Anaesthesia unit; Univentor, Malta), four loose silk (5/0; Catgut GmbH Markneukirchen) ligatures were placed around the sciatic nerve at the level of the right mid-thigh as described previously (Wetzel et al., 2007).
as §1
Drug injections of OB-1 or DMSO alone were dissolved in Ringer's solution (in mM: 135 NaCl, 5 KCl, 5 HEPES, 1.8 CaCl2), 1 MgCl2) to make the OB-1 and vehicle solution. Injections were made 3 hours prior to behavioral testing, approximately 20 μl solution, 250 pmol per paw, was injected into the palm with a Hamilton syringe, gauge 33. During the injection procedure, the mouse was anaesthetized with isoflurane (1.5 to 2.5% in 02). The injection procedure lasted around 3 minutes after which the mouse was moved to the home cage for recovery before behavioral testing.
We next interrogated whether local application of OB-1 can ameliorate tactile-evoked pain behavior in neuropathic models. […] We decided to test this idea more directly by testing the effects of local OB-1 on the mechanical sensitivity of Stoml3^−/− mice with CCI. […] Off-target effects are an issue for any biologically active small molecule. We therefore tested the effects of 20 μM OB-1 in a commercially available in vitro pharmacology panel (www.cerep.fr) consisting of 79 receptors and ion channels.

The target of the next test is T1, hsSTOML3 (Homo sapiens, UniProt Q8TAV4).
T1 construct: expressed in transfected cells; host or cells: N2a
T1 sequence (Q8TAV4 whole entry): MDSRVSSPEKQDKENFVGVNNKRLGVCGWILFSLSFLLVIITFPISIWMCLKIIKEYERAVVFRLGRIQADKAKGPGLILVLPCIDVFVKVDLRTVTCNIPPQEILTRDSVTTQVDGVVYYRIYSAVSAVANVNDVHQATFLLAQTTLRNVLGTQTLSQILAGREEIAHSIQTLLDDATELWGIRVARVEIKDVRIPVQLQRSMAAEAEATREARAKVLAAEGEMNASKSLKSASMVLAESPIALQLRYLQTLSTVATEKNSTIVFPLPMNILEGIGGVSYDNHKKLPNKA
Description: TriGFP assay of hsSTOML3 self-association in N2a cells, flow cytometry. It is filed as cell-based. The conditions noted are these: 20 μM, 16 h, vs vehicle. (In general: In flow cytometry, cells or beads pass a laser one at a time.)

Test [4] concerns cutaneous sensory afferents of the saphenous nerve. The test can be described thus: Ex vivo skin-nerve preparation after local injection into the paw. Type of test: in vivo, mouse. The conditions noted are these: recordings 24 h after treatment.

The structures appear in SMILES notation.

Description for hsSTOML3: (a) The assay is based on the tripartite association between the two twenty amino-acids long GFP tags GFP10 and GFP11, which were fused to hsSTOML3 protein partners, and the complementary GFP1-9 detector (Reference 50). When hsSTOML3 proteins interact, GFP10 and GFP11 self-associate with GFP1-9 and reconstitute functional GFP.
N2a cells were cultured in 6-well plates to approximately 70% confluence; cells were co-transfected with plasmids encoding GFP1-9, STOML3-GFP10 and STOML3-GFP11 using PEI, as per manufacturer's instructions. The transfection reaction was allowed to proceed for 8 h before compound incubation at 20 μM final concentration. Twenty-four hours after transfection cells were collected, fixed with 4% PFA for 10 minutes and resuspended in PBS. Cell suspensions were used for flow cytometry analysis.
In this assay, N2a cells were co-transfected with plasmids encoding GFP1-9, STOML3-GFP10 and STOML3-GFP11 and incubated with either vehicle (0.4% DMSO) or OB-1 derivatives at 20 μM final concentration for 16 h. Twenty-four hours after transfection cells were collected, fixed with 4% PFA and resuspended in PBS.

With `CCOC(=O)c1c(-c2ccccc2)oc2ccc(Oc3c([N+](=O)[O-])ncn3C)cc12` [OB-1, Ethyl 5-((1-methyl-4-nitro-1H-imidazol-5-yl)oxy)-2-phenylbenzofuran-3-carboxylate], the allodynia entry in test [1] is on record as “no reversal”. Besides, in test [2], the “inactivation time constant (τ2) of mechanically-gated currents” value is on record as “slowed”. In addition, the “neurons displaying no mechanosensitive current” value in test [2] (12/21 neurons, control 21%) is around 60%. Besides, the “effect of a single dose after 24 h” value in test [3] (CCI) is recorded as “absent”. The “time of maximal effect after a single local injection” value in test [3] (CCI) was determined as 3 h. In test [3] (CCI, applied to the contralateral paw), the established hypersensitivity entry is recorded as “no reversal”. In addition, the “half-maximal effective dose (ED50)” value in test [3] (CCI, paw withdrawal threshold, local injection) was 4.42 µM; in test [3] (CCI, per paw), “approximately 20 pmol”. Further, the paw withdrawal threshold entry in test [3] (Stoml3−/− mice with CCI, local treatment of neuropathic paws) is reported as “no change”. The mechanical hypersensitivity result in test [3] (female mice with CCI, similar extent to males) is “reversed”. In addition, in test [3] (wild type mice, CCI 6-21 days after induction, intraplantar ipsilateral), the “tactile-evoked pain or allodynia” value is recorded as “complete reversal”. On hsSTOML3, the “hsSTOML3 self-association (GFP signal intensity)” value is “strongly reduce”. In test [4], the “mechanoreceptor silencing effect, reversibility” value is listed as “completely reversible”.

The values are drawn from patent publication US11384071B2, “Inhibitors of mechanotransduction to treat pain and modulate touch perception” (Max-Delbrück-Centrum für Molekulare Medizin in der …, priority 2016, dated 2022).
